Earlier results as cited in US6797472B1, “Variation in drug response related to polymorphisms in β2-adrenergic receptor” (Genaissance Pharmaceuticals, Inc., priority 1999, dated 2004).

Columns and labels:
Ile164 receptor [1] = biological target: T1, Ile164 receptor (Homo sapiens, UniProt P07550, T164I); details: competition binding with [125I]cyp in the presence of GTP; reference 4
Ile164 receptor [2] = biological target: T1, Ile164 receptor; details: previous studies

SMILES	binding affinity at Ile164 receptor (Ile164 receptor [1])	stimulation of adenylyl cyclase by Ile164 receptor compared to Thr164 receptor (Ile164 receptor [2])
NC[C@H](O)c1ccc(O)c(O)c1 [norepinephrine]	small decrease in binding affinity	–
NCCc1ccc(O)c(O)c1 [dopamine]	normal binding affinities	does not show decreased stimulation
CNC[C@H](O)c1ccc(O)c(O)c1 [epinephrine]	small decrease in binding affinity	decreased stimulation
